Measurements: patent US5629298A, “Adenosine as a positive inotrop in the compromised heart” (University of Massachusetts Medical Center, priority 1995, dated 1997)
Where two headings read alike, the source gives them in different places.

Assays:
rat ventricular myocytes = test: Contractile function of individual ventricular myocytes (line scan camera edge detection, paced at 0.5 Hz); assay type: cell-based; conditions: for inhibition at 0.2 µM / activation at 0.2 µM: ISO at 0.2 μM; for +dL/dtmax, maximal rate of shortening / -dL/dtmax, maximal rate of relaxation / DS, duration of shortening / LC, maximum length change (shortening) with contraction / TPS, time-to-peak shortening / TR, time to 75% relaxation: mean ± SE
Procedure: Primary cultures of adult rat ventricular myocytes were prepared essentially according to previously described methods (Romano et al., Am. J. Physiol. 257:H1088 (1989)). Two male Sprague-Dawley rats (Charles River, Wilmington, Mass. or Harlan, Indianapolis, Ind.) were decapitated, and the hearts were rapidly excised and constant pressure (70 cm H2) and nonrecirculated) perfused for 10 minutes through the aortas with filtered (0.45 μm membrane filter) perfusing solution (NaCl, 118 mM; glucose, 10 mM; NaHCO3 25 mM; KCl, 4.69 mM; MgSO4 1.18 mM; and KH2 PO4, 1.18 mM; (pH 7.4)), to which […] was added, at 37° C. After equilibration, the hearts were constant pressure perfused with fresh physiological saline ("PS") containing no added Ca^2+ until spontaneous contractions ceased (i.e., ~30 seconds). The hearts were then perfused for 4-10 minutes in a nonrecirculating manner with PS containing 0.73 mg/ml collagenase, 0.16 mg/ml hyaluronidase, 1 mg/ml recrystallized bovine serum albumin ("BSA") and 48.4 μM Ca^2+ at a rate of 3-4 ml/min/heart. Ventricles, free of atria, were removed from the perfusion system, cut into 8 pieces and placed in a 50 ml Erlenmeyer flask with 5 ml of PS containing 0.73 mg/ml collagenase, 0.16 mg/ml hyaluronidase, 2.5 mg/ml BSA, and 50 μM Ca^2+ (incubation solution). The flask was gently shaken (40 cycles/min) in a reciprocating water bath with continuous gassing (95% O2, 5% CO2) for 7 minutes at 37° C. The incubation solution was aspirated and this shaking procedure was repeated with fresh incubation solution 3-5 times depending on the likelihood that the tissue was ready to dissociate. After the final incubation period, the solution was aspirated and replaced with 10 ml of fresh incubation solution. The flask was then shaken rapidly (120 cycles/min) for 10 minutes with gassing to dissociate the myocytes. The flask contents were filtered through a 250 μm nylon mesh into a 50 ml polypropylene centrifuge tube, to which 40 ml of PS containing 5.95 mg/ml BSA and 99.7 μm Ca^2+ (wash solution) was gradually added.
The myocytes were allowed to settle for 15 minutes, and the upper two thirds of the wash solution was aspirated. Upon the addition of 30-35 ml of wash solution, this settling step was repeated. The wash solution was aspirated and the myocyte pellet was resuspended in 10 ml of minimum essential medium ("MEM"). The myocyte suspension was allowed to settle for 5 minutes and then brought to a final volume of 22 ml with MEM. Two milliliters of the myocyte suspension was seeded onto each of 60 mm culture dishes containing 2 ml of MEM.
The contractile function of individual myocytes was assessed by dispersing 50-100 cells in a 506 μl myocyte chamber (11×23×2 mm deep). The chamber (FIG. 1) was continuously suffused (850 μl/min) with fresh suffusion solution ("SS") in mM: 136.4 NaCl, 4.7 KCl, 1.0 CaCl2, 10 hydroxyethylpiperzine-ethanesulfonicacid (HEPES), 1.0 NaHCO3, 1.2 MgSO4, 1.2 KH2 PO4, 10 glucose, 0.6 ascorbate, 1.0 pyruvate) at 20° C. The chamber was mounted on an inverted microscope stage and contained platinum wire electrodes for initiating myocyte contraction at 0.5 Hz (voltage 10% above threshold for 5 msec duration).
The image of the myocyte was projected via an inverted microscope at 300× onto a line scan camera (Fairchild, Model 1600R) containing a linear array (1×3456) of photodiodes. When aligned with the longitudinal axis of the cell the camera detected the movement of the 2 ends of the myocyte upon contraction (shortening and relengthening). […] When the myocyte was transilluminated, both ends of the cell were easily discriminated. Myocyte length and length change with respect to time for a single contraction was measured by determining the pixels in which the appropriate transitions between light and dark occurred. The line scan camera was calibrated with a stage micrometer scaled in 10 μm divisions. The signals from the camera were directed to a Hewlett Packard computer (Model Vectra RS/20C). […]

[1] = system: cultured ventricular myocytes; test: cAMP content of cultured ventricular myocytes (125I-cAMP RIA); assay type: cell-based, rat; conditions: Rattus norvegicus, Ventricular myocyte
Procedure: When myocytes were to be used for biochemical studies, each of the culture dishes was preincubated for 2 hours with 1 ml of MEM containing 33 μg of laminin in a 37° C. incubator gassed with 5% CO2 in room air. The laminin solution was removed prior to myocyte seeding. After seeding, the dishes were incubated for an additional 2 hours. The settling and short term culture procedures were performed to purify the myocytes so that >95% of the myocytes adhering to the dishes were rod shaped.
Cyclic AMP levels were determined in cultures of ventricular myocytes according to the following method. After the 2-hour incubation period, the MEM was aspirated and replaced with 2 ml of fresh MEM. Adenosine agonists, ISO, or adenosine antagonists were added to the medium bathing the cells at the concentrations and times indicated. The experiment was terminated by removing the medium from the dish and adding 200 μl of 1N HCl over the cultured myocyte surface. The dishes were then frozen in liquid N2 and stored at -70° C. or held on ice momentarily until extraction was initiated.
For assay, the contents of the dishes were transferred (using 1 ml of distilled/deionized H2 O) into microcentrifuge tubes. The extracts were heated for 1 hour at 57° C. and sonicated for 10 minutes. The extracts were then centrifugated at 14,000 x g for 15 minutes. The supernatant was removed, evaporated, reconstituted in 500 μl of 50 mM sodium acetate buffer and assayed for cAMP using an ^125 I-cAMP RIA kit (Amersham). The pellet was solubilized with 0.1N NaOH and protein determined. The cAMP values are reported in pmol cAMP/mg protein of the extract pellet (total cell protein). This cAMP assay procedure routinely provided recovery values in excess of 90%.

[2] = ISO at 0.1 μM in the presence of 1 μM PIA
[3] = Rattus norvegicus, Ventricular myocyte, read-out: increase in +dL/dtmax
[4] = Rattus norvegicus, Ventricular myocyte, read-out: increase in LC
[5] = Table 2, 0.2 μM ISO, 2 μM PIA, 0.2 μM DPCPX added sequentially every 8-10 min, maximum responses, N = 6
[6] = Rattus norvegicus, Ventricular myocyte, read-out: increase in TPS
[7] = Rattus norvegicus, Ventricular myocyte, read-out: increase in TR
[8] = Table 4, CGS-21680 10^-4 M, cumulative dose-response, every 10 min, N = 6
[9] = Table 4, CGS-21680 10^-5 M, cumulative dose-response, every 10 min, N = 6
[10] = Table 4, CGS-21680 10^-6 M, cumulative dose-response, every 10 min, N = 9
[11] = Table 4, CGS-21680 10^-7 M, cumulative dose-response, every 10 min, N = 9
[12] = Table 4, CGS-21680 10^-8 M, cumulative dose-response, every 10 min, N = 8
[13] = Table 5, CGS-21680 and/or CGS-15943 at 10^-5 M, 10 min, N = 6
[14] = 10 min, read-out: increase in myocyte cAMP

For CC(C)NCC(O)c1ccc(O)c(O)c1 (stereo not drawn) [ISO, isoproterenol], the “decrease in TR” value (rat ventricular myocytes; [2]) was 10%, the “increase in +dL/dtmax” value (rat ventricular myocytes; [2]) was 70% and the “increase in -dL/dtmax” value (rat ventricular myocytes; [2]) was 93%. For the same molecule, the “increase in LC” value (rat ventricular myocytes; [2]) was 44%, the inhibition at 0.2 µM (rat ventricular myocytes; Rattus norvegicus, Ventricular myocyte, read-out: decrease in DS) was 30% and the inhibition at 0.2 µM (rat ventricular myocytes; Rattus norvegicus, Ventricular myocyte, read-out: decrease in TPS) was 14%. It also gave an inhibition at 0.2 µM (rat ventricular myocytes; Rattus norvegicus, Ventricular myocyte, read-out: decrease in TR) of 39%, an activation at 0.2 µM (rat ventricular myocytes; [3]) of 63% and an activation at 0.2 µM (rat ventricular myocytes; Rattus norvegicus, Ventricular myocyte, read-out: increase in -dL/dtmax) of 100%. The activation at 0.2 µM (rat ventricular myocytes; [4]) was 61%, the “+dL/dtmax, maximal rate of shortening” value (rat ventricular myocytes; [5]) was 260 ± 13 μm/msec and the “-dL/dtmax, maximal rate of relaxation” value (rat ventricular myocytes; [5]) was 180 ± 17 μm/msec. The “DS, duration of shortening” value (rat ventricular myocytes; [5]) was 263 ± 16 ms, the “LC, maximum length change (shortening) with contraction” value (“LC, maximum length change (shortening)” below) (rat ventricular myocytes; [5]) was 29 ± 2 μm and the “TPS, time-to-peak shortening” value (rat ventricular myocytes; [5]) was 103 ± 4 ms. For the same molecule, the “TR, time to 75% relaxation” value (rat ventricular myocytes; [5]) was 210 ± 8 ms, the activation at 0.1 µM ([1]; 1 min, ISO at 0.1 μM for 1 minutes, read-out: increase in myocyte cAMP over basal) was 90% and the activation at 1 µM ([1]; 1 min, ISO at 1 μM for 1 minutes, read-out: increase in myocyte cAMP over basal) was 138%.

With CCNC(=O)[C@H]1O[C@@H](n2cnc3c(N)nc(NCCc4ccc(CCC(=O)O)cc4)nc32)[C@H](O)[C@@H]1O [CGS-21680, 2-p-(2-carboxy-ethyl)phenethyl-amino-5'-N-ethylcarboxamido-adenosine] the “effect on -dL/dtmax” value (rat ventricular myocytes; CGS-21680, Table 4 concentrations) was “did not affect”, the “contractility variables compared to 1 μM CGS-21680 in the absence of DPCPX” value (rat ventricular myocytes; CGS-21680 at 1 μM in the presence of 0.2 μM DPCPX) was “no further increases” and the EC50 (rat ventricular myocytes; Rattus norvegicus, Ventricular myocyte, read-out: EC50 for +dL/dtmax) was 13.2 ± 5.6 nM. It also gave an EC50 (rat ventricular myocytes; Rattus norvegicus, Ventricular myocyte, read-out: EC50 for DS) of 26 ± 5.4 nM, an EC50 (rat ventricular myocytes; Rattus norvegicus, Ventricular myocyte, read-out: EC50 for LC) of 6.1 ± 2 nM and an EC50 (rat ventricular myocytes; Rattus norvegicus, Ventricular myocyte, read-out: EC50 for TPS) of 48.2 ± 6.7 nM. The EC50 (rat ventricular myocytes; Rattus norvegicus, Ventricular myocyte, read-out: EC50 for TR) was 28.9 ± 8.7 nM, the activation at 0.1 µM (rat ventricular myocytes; [3]) was 27% and the activation at 0.1 µM (rat ventricular myocytes; Rattus norvegicus, Ventricular myocyte, read-out: increase in DS) was 32%. For the same molecule, the activation at 0.1 µM (rat ventricular myocytes; [4]) was 28%, the activation at 0.01 µM (rat ventricular myocytes; [6]) was 11% and the activation at 0.1 µM (rat ventricular myocytes; [6]) was 30%. The activation at 0.01 µM (rat ventricular myocytes; [7]) was 12%, the activation at 0.1 µM (rat ventricular myocytes; [7]) was 22% and the “+dL/dtmax, maximal rate of shortening” value (rat ventricular myocytes; [8]) was 158 ± 14 μm/msec. The “-dL/dtmax, maximal rate of relaxation” value (rat ventricular myocytes; [8]) was 108 ± 16 μm/msec, the “DS, duration of shortening” value (rat ventricular myocytes; [8]) was 404 ± 17 ms and the “LC, maximum length change (shortening)” value (rat ventricular myocytes; [8]) was 22 ± 2 μm. For the same molecule, the “TPS, time-to-peak shortening” value (rat ventricular myocytes; [8]) was 156 ± 3 ms, the “TR, time to 75% relaxation” value (rat ventricular myocytes; [8]) was 322 ± 12 ms and the “+dL/dtmax, maximal rate of shortening” value (rat ventricular myocytes; [9]) was 187 ± 13 μm/msec. The “-dL/dtmax, maximal rate of relaxation” value (rat ventricular myocytes; [9]) was 127 ± 13 μm/msec, the “DS, duration of shortening” value (rat ventricular myocytes; [9]) was 460 ± 18 ms and the “LC, maximum length change (shortening)” value (rat ventricular myocytes; [9]) was 26 ± 3 μm. For the same molecule, the “TPS, time-to-peak shortening” value (rat ventricular myocytes; [9]) was 192 ± 4 ms, the “TR, time to 75% relaxation” value (rat ventricular myocytes; [9]) was 397 ± 14 ms and the “+dL/dtmax, maximal rate of shortening” value (rat ventricular myocytes; [10]) was 188 ± 11 μm/msec. For the same molecule, the “-dL/dtmax, maximal rate of relaxation” value (rat ventricular myocytes; [10]) was 121 ± 15 μm/msec, the “DS, duration of shortening” value (rat ventricular myocytes; [10]) was 458 ± 12 ms and the “LC, maximum length change (shortening)” value (rat ventricular myocytes; [10]) was 24 ± 2 μm. For the same molecule, the “TPS, time-to-peak shortening” value (rat ventricular myocytes; [10]) was 183 ± 5 ms, the “TR, time to 75% relaxation” value (rat ventricular myocytes; [10]) was 390 ± 13 ms and the “+dL/dtmax, maximal rate of shortening” value (rat ventricular myocytes; [11]) was 183 ± 14 μm/msec. For the same molecule, the “-dL/dtmax, maximal rate of relaxation” value (rat ventricular myocytes; [11]) was 126 ± 12 μm/msec, the “DS, duration of shortening” value (rat ventricular myocytes; [11]) was 431 ± 14 ms and the “LC, maximum length change (shortening)” value (rat ventricular myocytes; [11]) was 23 ± 2 μm. The “TPS, time-to-peak shortening” value (rat ventricular myocytes; [11]) was 169 ± 3 ms, the “TR, time to 75% relaxation” value (rat ventricular myocytes; [11]) was 361 ± 12 ms and the “+dL/dtmax, maximal rate of shortening” value (rat ventricular myocytes; [12]) was 162 ± 13 μm/msec. The “-dL/dtmax, maximal rate of relaxation” value (rat ventricular myocytes; [12]) was 125 ± 11 μm/msec, the “DS, duration of shortening” value (rat ventricular myocytes; [12]) was 363 ± 15 ms and the “LC, maximum length change (shortening)” value (rat ventricular myocytes; [12]) was 22 ± 2 μm. For the same molecule, the “TPS, time-to-peak shortening” value (rat ventricular myocytes; [12]) was 144 ± 4 ms, the “TR, time to 75% relaxation” value (rat ventricular myocytes; [12]) was 334 ± 10 ms and the “+dL/dtmax, maximal rate of shortening” value (rat ventricular myocytes; [13]) was 192 ± 11 μm/msec. The “-dL/dtmax, maximal rate of relaxation” value (rat ventricular myocytes; [13]) was 122 ± 12 μm/msec, the “DS, duration of shortening” value (rat ventricular myocytes; [13]) was 486 ± 15 ms and the “LC, maximum length change (shortening)” value (rat ventricular myocytes; [13]) was 25 ± 2 μm. The “TPS, time-to-peak shortening” value (rat ventricular myocytes; [13]) was 190 ± 4 ms, the “TR, time to 75% relaxation” value (rat ventricular myocytes; [13]) was 392 ± 13 ms and the EC50 (rat ventricular myocytes; read-out: EC50 for the contractile variables (length change, duration of shortening, time to peak shortening, time to 75% relaxation, +dL/dtmax), range over the five variables) was 6 to 48 nM. The activation at 1 µM [1, 14] was 77%, the activation at 10 µM [1, 14] was 174% and the EC50 ([1]; 10 min, read-out: EC50 for increase in myocyte cAMP) was 1150 ± 370 nM.
